In this assay the target is T1, human mGlu4 receptor (Homo sapiens, UniProt Q14833).
T1 construct: expressed in transfected cells; host or cells: HEK-293 (monoclonal, stably transfected)
As to the kind of experiment: Ca2+ mobilization in vitro assay on recombinant human mGlu4 expressed in HEK293 cells (mGlu4 PAM). It is filed as cell-based. Conditions: for Emax: HEK293, maximal response in % of the maximal stimulatory effect obtained with saturating concentrations of L-AP4, read-out: Eff. (%); for EC50: HEK-293 cells, Ca2+ mobilization, L-AP4 added at EC20. How it is done:
Determination of EC50 Values Using a Ca2+ mobilization in vitro Assay on Recombinant Human mGlu4 Expressed in HEK293 cells:
A monoclonal HEK-293 cell line stably transfected with a cDNA encoding for the human mGlu4 receptor was generated; for the work with mGlu4 Positive Allosteric Modulators (PAMs), a cell line with low receptor expression levels and low constitutive receptor activity was selected to allow the differentiation of agonistic versus PAM activity. Cells were cultured according to standard protocols (Freshney, 2000) in Dulbecco's Modified Eagle Medium with high glucose supplemented with 1 mM glutamine, 10% (vol/vol) heat-inactivated bovine calf serum, Penicillin/Streptomycin, 50 μg/ml hygromycin and 15 μg/ml blasticidin (all cell culture reagents and antibiotics from Invitrogen, Basel, Switzerland).
About 24 hrs before an experiment, 5×10^4 cells/well were seeded in poly-D-lysine coated, black/clear-bottomed 96-well plates. The cells were loaded with 2.5 μM Fluo-4AM in loading buffer (1×HBSS, 20 mM HEPES) for 1 hr at 37° C. and washed five times with loading buffer. The cells were transferred into a Functional Drug Screening System 7000 (Hamamatsu, Paris, France), and 11 half logarithmic serial dilutions of test compound at 37° C. were added and the cells were incubated for 10-30 min. with on-line recording of fluorescence. Following this pre-incubation step, the agonist (2S)-2-amino-4-phosphonobutanoic acid (L-AP4) was added to the cells at a concentration corresponding to EC20 with on-line recording of fluorescence; in order to account for day-to-day variations in the responsiveness of cells, the EC20 of L-AP4 was determined immediately ahead of each experiment by recording of a full dose-response curve of L-AP4.
Responses were measured as peak increase in fluorescence minus basal (i.e. fluorescence without addition of L-AP4), normalized to the maximal stimulatory effect obtained with saturating concentrations of L-AP4. Graphs were plotted with the % maximal stimulatory using XLfit, a curve fitting program that iteratively plots the data using Levenburg Marquardt algorithm. The single site competition analysis equation used was y=A+((B−A)/(1+((x/C)D))), where y is the % maximal stimulatory effect, A is the minimum y, B is the maximum y, C is the EC50, x is the log 10 of the concentration of the competing compound and D is the slope of the curve (the Hill Coefficient). From these curves the EC50 (drug concentration at which 50% of the maximal receptor activation was achieved), the Hill coefficient as well as the maximal response in % of the maximal stimulatory effect obtained with saturating concentrations of L-AP4 were calculated (see FIG. 1).
A depression of the signal observed after addition of the EC20 concentration of L-AP4was indicative of an inhibitory activity of the test compound.
(In general: Calcium assays in cells follow changes in intracellular calcium, usually with a dye or a luminescent sensor.)

Molecules are shown by their SMILES.

T1 sequence (Q14833 33-912): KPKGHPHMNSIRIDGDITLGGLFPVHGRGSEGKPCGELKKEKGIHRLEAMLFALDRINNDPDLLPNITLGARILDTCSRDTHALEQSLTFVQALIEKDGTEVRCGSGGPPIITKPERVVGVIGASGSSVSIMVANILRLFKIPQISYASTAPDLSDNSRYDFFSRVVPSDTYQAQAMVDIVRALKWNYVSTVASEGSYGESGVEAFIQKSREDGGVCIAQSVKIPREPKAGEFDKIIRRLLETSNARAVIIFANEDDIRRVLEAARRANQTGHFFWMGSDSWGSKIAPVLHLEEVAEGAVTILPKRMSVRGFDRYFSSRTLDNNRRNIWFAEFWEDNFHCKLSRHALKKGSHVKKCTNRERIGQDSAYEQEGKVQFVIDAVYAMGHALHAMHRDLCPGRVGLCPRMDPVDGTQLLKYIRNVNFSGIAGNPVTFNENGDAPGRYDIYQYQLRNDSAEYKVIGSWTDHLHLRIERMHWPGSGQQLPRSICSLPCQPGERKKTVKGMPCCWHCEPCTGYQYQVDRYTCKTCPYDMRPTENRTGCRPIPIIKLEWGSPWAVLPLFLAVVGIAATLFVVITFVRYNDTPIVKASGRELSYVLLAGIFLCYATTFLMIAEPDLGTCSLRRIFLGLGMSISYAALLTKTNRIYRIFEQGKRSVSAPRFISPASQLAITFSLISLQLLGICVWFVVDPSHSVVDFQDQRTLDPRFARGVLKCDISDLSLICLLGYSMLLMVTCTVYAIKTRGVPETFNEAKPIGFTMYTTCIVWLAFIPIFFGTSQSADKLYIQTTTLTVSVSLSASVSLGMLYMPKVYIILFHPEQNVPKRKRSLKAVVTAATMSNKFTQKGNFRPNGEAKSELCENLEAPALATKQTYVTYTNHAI

`CC1C(=O)N(c2c(F)cc(C#Cc3ccccc3)cc2F)C(=O)N(C)C1(C)C` (racemic) [Example 7, (5RS)-3-[2,6-Difluoro-4-(2-phenylethynyl)phenyl]-1,5,6,6-tetramethyl-hexahydropyrimidine-2,4-dione]: the Emax worked out at 148% and the EC50 was found to be 157 nM.
`O=C1CC2COCCN2C(=O)N1c1c(F)cc(C#Cc2ccccc2)cc1F` (racemic) [Example 8, (9aRS)-7-[2,6-Difluoro-4-(2-phenylethynyl)phenyl]-3,4,9,9a-tetrahydro-1H-pyrimido[6,1-c][1,4]oxazine-6,8-dione]: the Emax was found to be 107% and the EC50 was found to be 144 nM.
The like results for `CN1C(=O)N(c2c(F)cc(C#Cc3ccccc3)cc2F)C(=O)[C@H]2CCC[C@H]21` (racemic) [Example 11, (4aRS,7aSR)-3-[2,6-Difluoro-4-(2-phenylethynyl)phenyl]-1-methyl-5,6,7,7a-tetrahydro-4aH-cyclopenta[d]pyrimidine-2,4-dione] were, in that order, 131% and 163 nM.
Regarding `CN1C(=O)N(c2c(F)cc(C#Cc3ccccc3)cc2F)C(=O)CC12CCOC2` (racemic) [Example 12, (5RS)-8-[2,6-Difluoro-4-(2-phenylethynyl)phenyl]-6-methyl-2-oxa-6,8-diazaspiro[4.5]decane-7,9-dione], the Emax was 115% and the EC50 was 260 nM.
For `CN1C(=O)N(c2c(F)cc(C#Cc3ccccc3)cc2F)C(=O)CC1(C)c1ccccc1` (racemic) [Example 13, (6RS)-3-[2,6-Difluoro-4-(2-phenylethynyl)phenyl]-1,6-dimethyl-6-phenyl-hexahydropyrimidine-2,4-dione], in that order: 119% and 28 nM.
`CN1C(=O)N(c2c(F)cc(C#Cc3cccnc3)cc2F)C(=O)CC1(C)c1ccccc1` (racemic) [Example 15, (6RS)-3-[2,6-Difluoro-4-[2-(3-pyridyl)ethynyl]phenyl]-1,6-dimethyl-6-phenyl-hexahydropyrimidine-2,4-dione]: the Emax is 134% and the EC50 amounted to 100 nM.
For `CCN1C(=O)N(c2c(F)cc(C#Cc3cccnc3)cc2F)C(=O)CC1(C)c1ccccc1` (racemic) [Example 16, (6RS)-3-[2,6-Difluoro-4-[2-(3-pyridyl)ethynyl]phenyl]-1-ethyl-6-methyl-6-phenyl-hexahydropyrimidine-2,4-dione], in that order: 136% and 105 nM.
For `CN1C(=O)N(c2c(F)cc(C#Cc3ccccc3)cc2F)C(=O)CC12CCCOC2` (racemic) [Example 17, (6RS)-3-[2,6-Difluoro-4-(2-phenylethynyl)phenyl]-1-methyl-8-oxa-1,3-diazaspiro[5.5]undecane-2,4-dione], in that order: 129% and 183 nM.
The like results for `CCC1(C)CC(=O)N(c2c(F)cc(C#Cc3ccccc3)cc2F)C(=O)N1C` (racemic) [Example 18, (6RS)-3-[2,6-Difluoro-4-(2-phenylethynyl)phenyl]-6-ethyl-1,6-dimethyl-hexahydropyrimidine-2,4-dione] were, in that order, 241% and 49 nM.
Consider `CN1C(=O)N(c2ccc(C#Cc3ccccc3)cn2)C(=O)CC1(C)c1ccccc1` (racemic) [Example 23, (6RS)-1,6-Dimethyl-6-phenyl-3-[5-(2-phenylethynyl)-2-pyridyl]hexahydropyrimidine-2,4-dione], for which the Emax is 126% and the EC50 was found to be 947 nM.
The like results for `CN1C(=O)N(c2ccc(C#Cc3ccccc3)cc2)C(=O)CC1(C)c1ccccc1` (racemic) [Example 24, (6RS)-1,6-Dimethyl-6-phenyl-3-[4-(2-phenylethynyl)phenyl]hexahydropyrimidine-2,4-dione] were, in that order, 126% and 254 nM.
The like results for `CC12CC(=O)N(c3c(F)cc(C#Cc4ccccc4)cc3F)C(=O)N1CCNC2=O` (racemic) [Example 25, (9aRS)-7-[2,6-Difluoro-4-(2-phenylethynyl)phenyl]-9a-methyl-2,3,4,9-tetrahydropyrazino[1,2-c]pyrimidine-1,6,8-trione] were, in that order, 105% and 83 nM.
For `CC(C)C1(C)CC(=O)N(c2c(F)cc(C#Cc3ccccc3)cc2F)C(=O)N1C` (racemic) [Example 26, (6RS)-3-[2,6-Difluoro-4-(2-phenylethynyl)phenyl]-6-isopropyl-1,6-dimethyl-hexahydropyrimidine-2,4-dione], in that order: 107% and 64 nM.
In the case of `CN1C(=O)N(c2c(F)cc(C#Cc3ccccc3)cc2F)C(=O)CC1(C)c1ccccn1` (racemic) [Example 27, (6RS)-3-[2,6-Difluoro-4-(2-phenylethynyl)phenyl]-1,6-dimethyl-6-(2-pyridyl)hexahydropyrimidine-2,4-dione], the Emax is 99% and the EC50 was 72 nM.
For `CN1C(=O)N(c2c(F)cc(C#Cc3ccccc3)cc2F)C(=O)CC1(C)c1ccncc1` (racemic) [Example 28, (6RS)-3-[2,6-Difluoro-4-(2-phenylethynyl)phenyl]-1,6-dimethyl-6-(4-pyridyl)hexahydropyrimidine-2,4-dione], in that order: 105% and 112 nM.
The like results for `CN1C(=O)N(c2c(F)cc(C#Cc3ccccc3)cc2F)C(=O)CC1(C)c1cccnc1` (racemic) [Example 29, (6RS)-3-[2,6-Difluoro-4-(2-phenylethynyl)phenyl]-1,6-dimethyl-6-(3-pyridyl)hexahydropyrimidine-2,4-dione] were, in that order, 144% and 109 nM.
For `COCC1(C)CC(=O)N(c2c(F)cc(C#Cc3ccccc3)cc2F)C(=O)N1C` (racemic) [Example 30, (6RS)-3-[2,6-Difluoro-4-(2-phenylethynyl)phenyl]-6-(methoxymethyl)-1,6-dimethyl-hexahydropyrimidine-2,4-dione], in that order: 103% and 123 nM.
Turning to `CN1C(=O)N(c2c(F)cc(C#Cc3cccnc3)cc2F)C(=O)CC1(C)C1CCCCC1` (racemic) [Example 31, (6RS)-6-Cyclohexyl-3-[2,6-difluoro-4-[2-(3-pyridyl)ethynyl]phenyl]-1,6-dimethyl-hexahydropyrimidine-2,4-dione], the Emax stood at 117% and the EC50 amounted to 245 nM.
The like results for `CN1C(=O)N(c2ncc(C#Cc3ccccc3)cc2Cl)C(=O)CC1(C)c1ccccc1` (racemic) [Example 32, (6RS)-3-[3-Chloro-5-(2-phenylethynyl)-2-pyridyl]-1,6-dimethyl-6-phenyl-hexahydropyrimidine-2,4-dione] were, in that order, 103% and 155 nM.
Regarding `CN1C(=O)N(c2c(F)cc(C#Cc3cccnc3)cc2Cl)C(=O)CC1(C)c1cccnc1` (racemic) [Example 33, (6RS)-3-[2-Chloro-6-fluoro-4-[2-(3-pyridyl)ethynyl]phenyl]-1,6-dimethyl-6-(3-pyridyl)hexahydropyrimidine-2,4-dione], the Emax was found to be 142% and the EC50 amounted to 171 nM.
For `CN1C(=O)N(c2c(F)cc(C#Cc3cccnc3)cc2Cl)C(=O)CC1(C)c1ccccc1` (racemic) [Example 34, (6RS)-3-[2-Chloro-6-fluoro-4-[2-(3-pyridyl)ethynyl]phenyl]-1,6-dimethyl-6-phenyl-hexahydropyrimidine-2,4-dione], in that order: 150% and 135 nM.

The term EC50 denotes the concentration that produces a half-maximal response.

For the origin of these results see patent US9725416B2, “Ethynyl derivatives” (Hoffmann-La Roche Inc., priority 2014, dated 2017).
